From patent publication US20230069963A1, “PYRAZOLO[1,5-A]PYRIMIDINE MACROCYCLIC COMPOUND” (priority 2018, published 2023) come the findings set out here.

The test system of the first experiment is RSV ATCC VR-1540 (A2). Kind of experiment: microbe, parasite or virus in culture. In kind it is cell-based. The settings on record: Hep2 cells, incubated for 4 days, CPE detected with XTT assay (absorbance 450 nm); read-out: EC50 (nmol/L) against RSV A2 strain. Background: Formazan colour is commonly taken as a measure of viable cells.
Take “(18aS)-2-fluoro-13-(cis-3-hydroxycyclobutyl)-11-methyl-8,9,10,11,19,20,21,22-octahydro-l 8aH,24H-18,15-(metheno)pyrido[2,1-l]pyrimido[6,1-h][1,4,7,9,10,13]benzoxapentaazacyclohexadecine-7,24(6H)-dione [Example 109]”: the EC50 was determined as 1.14 nmol/L.

The experiment is the same for the next values; noted with them: human respiratory syncytial virus, HEp-2, 96 h; Hep2 cells, incubated for 4 days, CPE detected with XTT assay (absorbance 450 nm); read-out: EC50 (nmol/L) against RSV A2 strain.
For `Cc1ccc2c(c1)C(=O)N1CCCC[C@H]1c1cc3nc(C4CC4)cc(n3n1)N(C)CCNC(=O)CO2` [Example 102, (18aS)-13-cyclopropyl-2,11-dimethyl-8,9,10,11,19,20,21,22-octahydro-18aH,24H-18,15-(metheno)pyrido[2,1-l]pyrimido[6,1-h][1,4,7,9,10,13]benzoxapentaazacyclohexadecine-7,24(6H)-dione], the EC50 came out at 0.239 nmol/L.

For `CN1CCNC(=O)COc2ccc(C(C)(F)F)cc2C(=O)N2CCCC[C@H]2c2cc3nc(N4CCC4)cc1n3n2` [Example 54, (18aS)-13-(azetidin-1-yl)-2-(1,1-difluoroethyl)-11-methyl-8,9,10,11,19,20,21,22-octahydro-18aH,24H-18,15-(metheno)pyrido[2,1-l]pyrimido[6,1-h][1,4,7,9,10,13]benzoxapentaazacyclohexadecine-7,24(6H)-dione], the EC50 is 3.2 nmol/L.

For the compound `CC1COc2ccc(F)cc2C(=O)N2CCCCC2c2cc3nc(N4CC(N)C4)cc(n3n2)N(C)CCN1` [Example 145, (18aS)-13-(3-aminoazetidin-1-yl)-2-fluoro-7,11-dimethyl-6,7,8,9,10,11,19,20,21,22-decahydro-18aH,24H-18,15-(metheno)pyrido[2,1-l]pyrimido[6,1-h][1,4,7,9,10,13]benzoxapentaazacyclohexadecin-24-one], the EC50 amounted to 17.5 nmol/L.

For the compound `Cc1ccc2c(c1)C(=O)N1CCCC[C@H]1c1cc3nc(N4CC(N)C4)cc(n3n1)N(C)CCN(S(C)(=O)=O)CCO2` [Example 180, (18aS)-13-(3-aminoazetidin-1-yl)-8-(methanesulfonyl)-2,11-dimethyl-6,7,8,9,10,11,19,20,21,22-decahydro-18aH,24H-18,15-(metheno)pyrido[2,1-l]pyrimido[6,1-h][1,4,7,9,10,13]benzoxapentaazacyclohexadecin-24-one], the EC50 was determined as 33 nmol/L.

On to `CN1CCN(C)c2cc(N3CC(N)C3)nc3cc(nn23)[C@@H]2CCCCN2C(=O)c2cc(F)ccc2OCC1=O` [Example 8, (18aS)-13-(3-aminoazetidin-1-yl)-2-fluoro-8,11-dimethyl-8,9,10,11,19,20,21,22-octahydro-18aH,24H-18,15-(metheno)pyrido[2,1-l]pyrimido[6,1-h][1,4,7,9,10,13]benzoxapentaazacyclohexadecine-7,24(6H)-dione], for which the EC50 came out at 6.3 nmol/L.

Regarding `CN1CCCCOCC(C)(c2cccnc2)C(=O)N2CCCCC2c2cc3nc(N4CC(N)C4)cc1n3n2` [Example 380, (18aS)-3-(3-aminoazetidin-1-yl)-5,12-dimethyl-12-(pyridin-3-yl)-6,7,8,9,11,12,16,17,18,18a-decahydro-5H,13H,15H-19,1-(metheno)pyrido[,2-e]pyrimido[1,6-i][1,5,8,9,11]oxatetraazacyclopentadecin-13-one], the EC50 is 8.77 nmol/L.

`Cc1ccc2c(c1)C(=O)N1CCCC[C@H]1c1cc3nc(N4CCC4)cc(n3n1)N(C)CCN(S(N)(=O)=O)CCO2` [Example 178, (18aS)-13-(azetidin-1-yl)-2,11-dimethyl-24-oxo-6,7,10,11,19,20,21,22-octahydro-8aH,24H-18,15-(metheno)pyrido[2,1-l]pyrimido[6,1-h][1,4,7,9,10,13]benzoxapentaazacyclohexadecine-8(9H)-sulfonamide]: the EC50 turned out to be 4.48 nmol/L.

Regarding `CC[C@H]1c2cc3nc(NCC(C)(C)N)c(C)c(n3n2)N(C)CCCCCOc2ccccc2C(=O)N1C` [Example 234, (18S)-3-[(2-amino-2-methylpropyl)amino]-18-ethyl-4,5,17-trimethyl-5,6,7,8,9,10,17,18-octahydro-16H-19,1-(metheno)pyrimido[6,1-h][1,7,9,10,13]benzoxatetraazacyclohexadecin-16-one], the EC50 was 6.77 nmol/L.

For `CCN1CCCS(=O)(=O)Nc2ccc(F)cc2C(=O)N2CCCC[C@H]2c2cc3nc(N4CCC4)cc1n3n2` [Example 318, (23aS)-18-(azetidin-1-yl)-16-ethyl-8-fluoro-1,3,4,13,14,15,16,23a-octahydro-2H,6H-23,20-(metheno)-12λ^6-pyrido[2,1-k]pyrimido[6,1-g][2,1,6,8,9,12]benzothiapentaazacyclopentadecine-6,12,12(11H)-trione], the EC50 is 22.7 nmol/L.

In the case of `CN1CCNC(=O)COc2ccc(I)cc2C(=O)N2CCCC[C@H]2c2cc3nc(C4CC4)cc1n3n2` [Example 97, (18aS)-13-cyclopropyl-2-iodo-1 l-methyl-8,9,10,11,19,20,21,22-octahydro-18aH,24H-18,15-(metheno)pyrido[2,1l-]pyrimido[6,1-h][1,4,7,9,10,13]benzoxapentaazacyclohexadecine-7,24(6H)-dione], the EC50 turned out to be 0.76 nmol/L.

For the compound `CN1CCNC(C(F)(F)F)COc2ccc(Cl)cc2C(=O)N2CCCCC2c2cc3nc(N4CC(N)C4)cc1n3n2` (single isomer, unassigned) [Example 338], the EC50 was determined as 2.37 nmol/L.

With `Cc1c(CCCCN)nc2cc3nn2c1N(C)CCNC(=O)COc1ccc(Cl)cc1C(=O)N1CCCC[C@@H]31` [Example 78, (18aS)-13-(4-aminobutyl)-2-chloro-11,12-dimethyl-8,9,10,11,19,20,21,22-octahydro-18aH,24H-18,15-(metheno)pyrido[2,1-l]pyrimido[6,1-h][1,4,7,9,10,13]benzoxapentaazacyclohexadecine-7,24(6H)-dione], the EC50 was found to be 1.7 nmol/L.

Regarding `CCCc1cc2n3nc(cc3n1)[C@@H]1CCCCN1C(=O)c1cc(CN)ccc1OCC(=O)NCCN2C` [Example 101, (18aS)-2-(aminomethyl)-11-methyl-13-propyl-8,9,10,11,19,20,21,22-octahydro-18aH,24H-18,15-(metheno)pyrido[2,1-l]pyrimido[6,1-h][1,4,7,9,10,13]benzoxapentaazacyclohexadecine-7,24(6H)-dione], the EC50 was 11.9 nmol/L.

On to `CN1CCOc2ccc(Cl)cc2C(=O)N2CCCC[C@H]2c2cc3nc(N4CC(CN)C4)cc(n3n2)N(C)CC1` [Example 163, (18aS)-13-[3-(aminomethyl)azetidin-1-yl]-2-chloro-8,11-dimethyl-6,7,8,9,10,11,19,20,21,22-decahydro-18aH,24H-18,15-(metheno)pyrido[2,1-l]pyrimido[6,1-h][1,4,7,9,10,13]benzoxapentaazacyclohexadecin-24-one], for which the EC50 is around 10 nmol/L.

As for `CN1CCNC(=O)COc2ccc(F)cc2C(=O)N2CCCC[C@H]2c2cc3nc(N4CC(N)C4)cc1n3n2` [Example 4, (18aS)-13-(3-aminoazetidin-1-yl)-2-fluoro-11-methyl-8,9,10,11,19,20,21,22-octahydro-18aH,24H-18,15-(metheno)pyrido[2,1-l]pyrimido[6,1-h][1,4,7,9,10,13]benzoxapentaazacyclohexadecine-7,24(6H)-dione], the EC50 came to 2.71 nmol/L.

Take `CN1CCNC(=O)COc2ccc(Cl)cc2C(=O)N2CCCCC2c2cc3nc(C4CC(O)C4)cc1n3n2` [Example 111, (18aS)-2-chloro-13-(cis-3-hydroxycyclobutyl)-11-methyl-8,9,10,11,19,20,21,22-octahydro-18aH,24H-18,15-(metheno)pyrido[2,1-l]pyrimido[6,1-h][1,4,7,9,10,13]benzoxapentaazacyclohexadecine-7,24(6H)-dione]: the EC50 is 0.448 nmol/L.

With `CN1CCCC(=O)NCC(C)(c2ccc(F)cc2)C(=O)N2CCCC[C@H]2c2cc3nc(N4CC(N)C4)cc1n3n2` (stereo partly drawn) [Example 371, (18aS)-3-(3-aminoazetidin-1-yl)-12-(4-fluorophenyl)-5,12-dimethyl-7,8,11,12,16,17,18,18a-octahydro-5H,15H-19,1-(metheno)pyrido[1,2-m]pyrimido[1,6-b][1,2,4,9,13]pentaazacyclopentadecine-9,13(6H,10H)-dione], the EC50 amounted to 12.8 nmol/L.

Regarding `Cc1c(N2CCC2)nc2cc3nn2c1N(C)CCN(C)C(=O)COc1ccc(F)cc1C(=O)N1CCCC[C@@H]31` [Example 63, (18aS)-13-(azetidin-1-yl)-2-fluoro-8,11,12-trimethyl-8,9,10,11,19,20,21,22-octahydro-18aH, 24H-18,15-(metheno)pyrido[2,1-l]pyrimido[6,1-h][1,4,7,9,10,13]benzoxapentaazacyclohexadecine-7,24(6H)-dione], the EC50 amounted to 2.49 nmol/L.

With `NC1CN(c2cc3n4nc(cc4n2)[C@@H]2CCCCN2C(=O)c2cc(F)ccc2OCC(=O)NCCN3C2CC2)C1` [Example 14, (18aS)-13-(3-aminoazetidin-1-yl)-11-cyclopropyl-2-fluoro-8,9,10,11,19,20,21,22-octahydro-18aH,24H-18,15-(metheno)pyrido[2,1-l]pyrimido[6,1-h][1,4,7,9,10,13]benzoxapentaazacyclohexadecine-7,24(6H)-dione], the EC50 was 2.31 nmol/L.

For the compound `Cc1c(CCCN)nc2cc3nn2c1N(C)CCNC(=O)COc1ccc(Cl)cc1C(=O)N1CCCC[C@@H]31` [Example 75, (18aS)-13-(3-aminopropyl)-2-chloro-11,12-dimethyl-8,9,10,11,19,20,21,22-octahydro-18aH, 24H-18,15-(metheno)pyrido[2,1-l]pyrimido[6,1-h][1,4,7,9,10,13]benzoxapentaazacyclohexadecine-7,24 (6H)-dione], the EC50 is 1 nmol/L.

Consider `CC[C@H]1c2cc3nc(N4CC[C@H](N)C4)c(C)c(n3n2)N(C)CCCCNc2ccc(C)cc2C(=O)N1C` [Example 223, (17S)-3-[(3S)-3-aminopyrrolidin-1-yl]-17-ethyl-4,5,13,16-tetramethyl-5,6,7,8,9,10,16,17-octahydro-15H-18,1-(metheno)pyrimido[6,1-g][1,6,8,9,12]benzopentaazacyclopentadecin-15-one], for which the EC50 was 1.34 nmol/L.
